Columns and labels:
[1] = test system: insect or tick; experiment: Duration of repellency of 2-undecanone alone (statement, no method); details: unformulated
[2] = test system: skin of human subjects; experiment: Human repeat insult patch test for skin irritation and sensitization; format: in vivo; details: positive control
Description: To determine the irritation and sensitization (contact allergy) potential of a test material after repeated application to the skin of human subjects three studies were conducted using the formulations of the invention comprising 2-undecanone, soybean oil, polysorbate 20, sorbitan oleate, oil of lemon eucalyptus and denatured alcohol (e.g., test materials).
Test materials to be tested under occlusive conditions were placed on an 8-millimeter aluminum Finn Chamber® (Epitest Ltd. Oy, Tuusula, Finland) supported on Scanpor® Tape (Norgesplaster A/S, Kristiansand, Norway) or an 8 mm filter paper coated aluminum Finn Chamber® AQUA supported on a thin flexible transparent polyurethane rectangular film coated on one side with a medical grade acrylic adhesive, consistent with adhesive used in state-of the-art hypoallergenic surgical tapes or a 7 mm IQ-ULTRA® closed cell system which is made of additive-free polyethylene plastic foam with a filter paper incorporated (It is supplied in units of 10 chambers on a hypoallergenic nonwoven adhesive tape; the width of the tape is 52 mm and the length is 118 mm) or other equivalents. Materials to be tested under semi-occlusive conditions were placed on a test strip with a Rayon/Polypropylene pad or on a 7.5 mm filter paper disc affixed to a strip of hypoallergenic tape (Johnson & Johnson 1 inch First Aid Cloth Tape).
Test materials to be tested in an open patch were applied and rubbed directly onto the back of the subject. Approximately 0.02-0.05 mL (in case of liquids) and/or 0.02-0.05 gm (in case of solids) of the test material was used for the studies. Liquid test material was dispensed on a 7.5 mm paper disk, which fit in the Finn Chamber.
Subjects were requested to bathe or wash as usual before arrival at the facility. Patches containing the test material were then affixed directly to the skin of the intrascapular regions of the back, to the right or left of the midline and subjects were dismissed with instructions not to wet or expose the test area to direct sunlight. Patches remained in place for 48 hours after the first application. Subjects were instructed not to remove the patches prior to their 48 hour scheduled visit. Thereafter, subjects were instructed to remove patches 24 hours after application for the remainder of the study.
This procedure was repeated until a series of nine (9) consecutive, 24-hour exposures had been made three (3) times a week for three (3) consecutive weeks. Prior to each reapplication, the test sites were evaluated by trained laboratory personnel. Following a 10-14 day rest period a retest/challenge dose was applied once to a previously unexposed test site.
Test sites were evaluated by trained laboratory personnel 48 and 96 hours after application.
In the event of an adverse reaction, the area of erythema and edema were measured. Edema was estimated by the evaluation of the skin with respect to the contour of the unaffected normal skin. Subjects were instructed to report any delayed reactions that might occur after the final reading.
Scoring scale and definition of symbols shown below are based on the scoring scheme according to the International Contact Dermatitis Research Group scoring scale [Rietschel, R. L., Fowler, J. F., Ed., Fisher's Contact Dermatitis (fourth ed.). […]

| Compound | duration of repellency [1] | subjects with a Grade 1 delayed reaction ([2]; Study I) | subjects with a Grade 1 reaction ([2]; Study I) | subjects with a Grade 1 reaction ([2]; Study II) | subjects with Grade 1 reaction ([2]; Study III) | subjects with Grade 2 reaction ([2]; Study III) |
| --- | --- | --- | --- | --- | --- | --- |
| CCCCCCCCCC(C)=O [Soybean 2-undecanone, 2-undecanone] | less than 30 min | – | – | – | – | – |
| CCCCCCCCCCCCOS(=O)(=O)[O-].[Na+] [2.0% Sodium Lauryl Sulfate Solution, Sodium Lauryl Sulfate] | – | 4 subjects | 35 subjects | 10 subjects | Two | two |

From patent publication US12133527B2, “Insect and tick repellent formulations and methods of use thereof” (priority 2017, dated 2024)
